Results published in publication PMC7410094 (ACS chemical biology, 2020).

How the values were obtained:
[1] = target: MelBEC (Escherichia coli, UniProt P02921); assay: Trp to dansyl FRET; assay type: binding; conditions: MTG-E13 micelles (response lost in DDM); active site
[2] = target: MelBSt (Salmonella enterica, UniProt P30878); assay: Trp to dansyl FRET; assay type: binding; conditions: DDM or MTG-E13 micelles; active site
[3] = target: β2AR (Homo sapiens, UniProt P07550); assay: radioligand binding assay; conditions: labelled compound; antagonist; DDM or MTG micelles at CMC+0.2 wt%
Sequence of β2AR (P07550 whole entry): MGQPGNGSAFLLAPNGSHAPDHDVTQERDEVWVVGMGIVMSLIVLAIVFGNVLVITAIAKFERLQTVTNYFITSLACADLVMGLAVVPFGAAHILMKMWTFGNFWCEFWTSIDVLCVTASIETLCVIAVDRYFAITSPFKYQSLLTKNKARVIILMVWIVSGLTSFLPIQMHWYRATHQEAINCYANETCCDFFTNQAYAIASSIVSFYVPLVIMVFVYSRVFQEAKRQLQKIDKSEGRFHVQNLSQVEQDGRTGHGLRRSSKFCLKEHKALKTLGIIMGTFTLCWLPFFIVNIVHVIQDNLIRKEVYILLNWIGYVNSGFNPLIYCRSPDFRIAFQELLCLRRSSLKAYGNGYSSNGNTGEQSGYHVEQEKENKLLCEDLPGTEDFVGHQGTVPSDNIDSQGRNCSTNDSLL

Sequence of MelBSt (P30878 whole entry): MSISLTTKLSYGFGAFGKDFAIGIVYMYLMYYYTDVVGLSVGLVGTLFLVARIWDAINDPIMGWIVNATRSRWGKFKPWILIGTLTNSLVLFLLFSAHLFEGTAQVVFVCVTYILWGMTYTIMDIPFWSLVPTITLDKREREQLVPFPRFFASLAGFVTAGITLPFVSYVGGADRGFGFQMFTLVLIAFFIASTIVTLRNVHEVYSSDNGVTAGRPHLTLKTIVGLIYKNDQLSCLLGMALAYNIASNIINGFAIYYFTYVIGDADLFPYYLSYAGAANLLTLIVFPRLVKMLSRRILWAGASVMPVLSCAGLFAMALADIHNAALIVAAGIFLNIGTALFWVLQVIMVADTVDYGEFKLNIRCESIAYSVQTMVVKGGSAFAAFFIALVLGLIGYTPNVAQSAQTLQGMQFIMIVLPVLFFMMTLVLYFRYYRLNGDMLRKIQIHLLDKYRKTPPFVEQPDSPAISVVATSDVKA
Sequence of MelBEC (P02921 2-473): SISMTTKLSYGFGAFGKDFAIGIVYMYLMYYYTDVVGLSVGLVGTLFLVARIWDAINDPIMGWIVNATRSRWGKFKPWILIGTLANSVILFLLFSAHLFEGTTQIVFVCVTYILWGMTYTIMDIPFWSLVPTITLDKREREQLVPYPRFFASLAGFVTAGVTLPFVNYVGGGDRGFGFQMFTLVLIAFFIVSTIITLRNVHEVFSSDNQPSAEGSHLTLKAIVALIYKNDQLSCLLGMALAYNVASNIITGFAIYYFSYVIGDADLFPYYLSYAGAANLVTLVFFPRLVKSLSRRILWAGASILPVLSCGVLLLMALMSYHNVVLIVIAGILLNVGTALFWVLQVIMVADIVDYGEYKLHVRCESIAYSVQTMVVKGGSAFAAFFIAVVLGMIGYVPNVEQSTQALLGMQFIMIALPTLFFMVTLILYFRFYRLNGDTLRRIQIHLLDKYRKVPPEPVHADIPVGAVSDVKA

Row | Compound | Trp to dansyl FRET [1] | Trp to dansyl FRET [2] | radioligand binding assay [3]
1 | CN(C)c1cccc2c(S(=O)(=O)NCCS[C@@H]3O[C@H](CO)[C@H](O)[C@H](O)[C@H]3O)cccc12 [D^2G, 2’-(N-dansyl)aminoalkyl-1-thio-β-D-galactopyranoside] | MTG-E13, was effective at preserving the functionality of this less stable MelB homologue | DDM-solubilized MelBSt showed initial increase and subsequent decrease in the fluorescence signal | –
2 | CCCc1ccccc1OCC(O)CNC(C)C (stereo not drawn) [[^3H]-dihydroalprenolol] | – | – | the MTGs led to [^3H]-DHA-binding capability of the receptor comparable to DDM
